Here are results for 5 compounds from patent publication US20150313825A1, “METHODS AND COMPOSITIONS FOR LOCALLY INCREASING BODY FAT” (TOPOKINE THERAPEUTICS, INC., priority 2012, published 2015).

Data set [1] has as its system subcutaneous fat. Kind of data set: Randomized controlled trial in mice, daily percutaneous application to right flank for 24 days (Example 1). The format is in vivo, C57BL/6J mice. The note with it: for Mean weight gain relative to vehicle / Mean weight gain / Local increase in subcutaneous fat (treated right flank vs untreated left flank): 5 mM in Lipoderm; for Mean weight gain relative to vehicle / Mean weight gain: 0.1 cc to flank daily, Day 0 until Day 24; for Mean weight gain: high-fat diet; for Local increase in subcutaneous fat (treated right flank vs untreated left flank): following 24 days of therapy. The method, then:
The arms were as follows: vehicle (Lipoderm®), a thiazolidinedione (pioglitazone), harmine, an orexigenic compound (megestrol acetate), and efavirenz. Each compound was combined in the percutaneous Lipoderm® formulation at an equimolar concentration (5 mM). The Lipoderm® vehicle is adapted to deliver the respective compound percutaneously, i.e., across the skin and into subcutaneous fat. The formulations were applied daily to the right flank of each animal, whereas the left flank was used as an untreated control.
A randomized controlled trial was conducted on C57BL/6J. Male mice approximately six weeks old were prospectively randomized into groups and assigned to the following treatment conditions (n=5 animals per group):
Animals were shaved and depilated over the flanks at the start of the study.
Animals were kept in identical conditions and fed ab libitum with a standardized high-fat diet (70% kcal fat). Animals were weighed three times weekly. Following 24 consecutive days of treatment, mice were sacrificed and samples of skin and adjacent fat from the treated flanks are taken for histologic examination.

For data set [2], the system named is subcutaneous fat. Kind of data set: Clinical application for augmentation of the buttocks (Example 9). The data set is classed as in vivo, human. The note with it: 10 mg/ml in Lipoderm daily, after 6 months. The method, then: The following description exemplifies a clinical application of percutaneous administration of an orexigenic pregnane derivative for augmentation of the buttocks. A female or male patient wishes to undergo a buttocks augmentation procedure but is concerned about the risks of surgery. The physician prescribes a daily application of megestrol acetate (for example, 10 mg/ml in Lipoderm®) to the buttocks.

The test system of data set [3] is subcutaneous fat. The following applies: for Rosiglitazone Increase over Placebo (fat thickness), MEAN: 42 days, p<0.0001. The method, then: A prospective controlled trial was performed in 4 Gottingen minipigs (2 males, 2 females). Hair on the back was clipped. […] An equivalent Vehicle Treatment Area was marked on the left side of the animal, such that the two treatment areas were anatomically equivalent. […] After 42 days of treatment, plasma pharmacokinetics (PK) was assessed on all animals by Liquid Chromatography/Tandem Mass Spectrometry. Necropsy was done and samples of skin, subcutaneous fat, and muscle were collected en bloc from each treatment area in a controlled fashion. […] Table 5 presents the thicknesses of subcutaneous fat on each of six treated and control (vehicle) locations, by animal. […] Table 6 compares plasma PK following percutaneous administration (present study) with plasma PK following oral administration in humans.

For data set [4] the following is noted: oral, 4 mg/d, humans; cited from earlier work.
The test system of data set [5] is subcutaneous fat. The data set can be described thus: Mouse study of percutaneous rosiglitazone, methods of Example 1 (Example 2). The note with it: rosiglitazone 0.1% or 0.3% by weight.

Where two headings read alike, the source gives them in different places. Marks after values point to notes of the source that are not given here.

Take `O=C1Nc2ccc(Cl)cc2[C@@](C#CC2CC2)(C(F)(F)F)O1` [Efavirenz]: in the data set on subcutaneous fat [1], the “Mean weight gain relative to vehicle” value is listed as 92%, the Mean weight gain amounted to 6.1 g and the “Local increase in subcutaneous fat (treated right flank vs untreated left flank)” value (from here on “Local increase in subcutaneous fat”) was “did not exhibit any increase in fat or asymmetry”.

As for `COc1ccc2c(c1)[nH]c1c(C)nccc12` [Harmine], in the data set on subcutaneous fat [1], the “Mean weight gain relative to vehicle” value stood at 102%, the Mean weight gain is listed as 6.8 g and the “Local increase in subcutaneous fat” value is on record as “did not exhibit any increase in fat or asymmetry”.

In the case of `CC(=O)O[C@]1(C(C)=O)CC[C@H]2[C@@H]3C=C(C)C4=CC(=O)CC[C@]4(C)[C@H]3CC[C@@]21C` [Megestrol acetate], in the data set with subcutaneous fat [1], the “Mean weight gain relative to vehicle” value was determined as 120%, the Mean weight gain stood at 8.0 g and the “Local increase in subcutaneous fat” value is “local increases in subcutaneous fat”. Also, in the data set on subcutaneous fat [1] (Day 24, treated vs untreated flank), the “Relative skin fold thickness of the left and right flanks” value is given as “asymmetric, with thicker skin folds on the treated flanks”. In addition, the “Skin fold thickness, right (treated) flank” value with subcutaneous fat [1] (representative mouse, 24 days of treatment, untreated left flank about 2 mm) is “about 4 mm”. The “Clinical size of buttocks” value in the data set on subcutaneous fat [2] is recorded as “the buttocks appear clinically larger”.

In the case of `CCc1ccc(CCOc2ccc(CC3SC(=O)NC3=O)cc2)nc1` (stereo not drawn) [Pioglitazone], in the data set with subcutaneous fat [1], the “Mean weight gain relative to vehicle” value was 112% and the Mean weight gain was 7.4 g.

As for `CN(CCOc1ccc(CC2SC(=O)NC2=O)cc1)c1ccccn1` (stereo not drawn) [Rosiglitazone], the “Fat Thickness (mm), Rosiglitazone Treatment Area, MEAN” value in the data set with subcutaneous fat [3] (mean of 24 locations, vehicle mean 4.39, p < .0001 (paired t-test)) was 6.29* mm. Also, the “Rosiglitazone Increase over Placebo (fat thickness), MEAN” value with subcutaneous fat [3] was found to be 48%. Moreover, the “Rosiglitazone Increase over Placebo (fat thickness), MEAN” value in the data set with subcutaneous fat [3] (listed as rosiglitazone) is reported as 48%. In the data set with subcutaneous fat [3] (minipig, in vivo), the “Tolerability, skin irritation and clinical observations” value is “well tolerated, with no evidence of skin irritation or other clinical observations”. For the same compound, in data set [4], the “Peak plasma level (Cmax)” value is listed as 355 ng/mL and the “Plasma exposure (AUC0-24)” value is 2542 ng·h/mL. Moreover, the Adverse effects entry in the data set with subcutaneous fat [5] is “No adverse effects were noted”.
